Like-named read-outs stand apart in the source and are kept apart here.
Biological target: T1, mGluR2 receptor (metabotropic glutamate receptor 2) (Homo sapiens, UniProt Q14416)
T1 construct: expressed in transfected cells
Test: mGluR2 Potentiator Screen, FLIPR, EC10-EC20 glutamate challenge
Assay type: cell-based
Procedure: Procedure for mGluR2 Potentiator Screen NLB methods EC10-EC20 Challenge Cell Culture and Plating:
Cells used for this screen are HEK cells stably transfected with the mGluR2 receptor (metabotropic glutamate receptor 2) and the Gα15 G protein. Clones were identified by functional activity (FLIPR). Cells are grown in growth media containing: DMEM High Glucose with Glutamine and Na Pyruvate (GIBCO), 10% (v/v) Heat inactivate FBS (GIBCO), G418 500 ug/ml (from 50 mg/ml stock) (GIBCO) and Blasticidin 3 ug/ml (from 5 mg/ml stock made in H2O) (Invitrogen).
2 days before the assay cell are trypsinized with 0.25% trysin/EDTA (GIBCO), spun down at 1000 rpm for 5 minutes, resuspended in growth media and plated on polystyrene 384 well black wall 1 clear bottom poly-D-lysine coated plates at a density of approximately 18,000 cells/well in a volume of 50 μL per well. One day before the assay the growth media is removed from the plates by flicking, and replaced with media containing DMEM High Glucose without Glutamine and Na Pyruvate (GIBCO) and 10% (v/v) dialyzed FBS (GIBCO). The reason for the removal of glutamine the day before the assay is to minimize the amount of glutamate that will be present during the assay, as endogenous glutarnate released from the cells can reduce the fluorescent response and interfere with the FLIPR screen.
FLIPR Methods and Data Analysis:
On the day of the assay, the FLIPR assay is performed using the following methods.
The pH is adjusted to 7.4 with 1 M NaOH. Prepare a 2 mM (approx.) stock solution of Fluo-4,am (Molecular Probes) dye in DMSO-22 μl DMSO per 50 ug vial (440 μL per 1 mg vial). Make a 1 mM (approx.) flou-4, PA working solution per vial by adding 22 μl of 20% pluronic acid (PA), (Molecular Probes) in DMSO to each 50 ug vial (440 μL per 1 mg vial). Prepare a 250 mM Probenecid (Sigma) stock solution by dissolving 0.71 g into 5 ml 1N NaOH and 5 ml assay buffer (for each liter of assay wash buffer)L Make 4 uM (approx.) dye incubation media by adding […] per 11 ml DMEM high glucose without glutamine (220 ml per 1 mg vial). Add 110 μL probenecid stock per 11 ml (2.5 mM final [concentration]). To the dye media add 3 units/ml of glutamic-pyruvic transaminase (GPT, Sigma) and 3 mM Na Pyruvate. The assay has worked with dye concentrations from 2 uM to 8 uM dye as well. To the assay buffer from drug preparation, add 1.83 mls DMSO and 400 μL 15.8% P104 (from New Leads biology) per liter for final concentrations of 0.18% DMSO and 0.006% P104. To the assay buffer for cell washing, add probenecid in the same manner and concentration that was used for the dye media.
Remove growth media from cell plates by flicking. Add 50 μl/well dye solution. Incubate 1 hour at 37° C. and 5% CO2. Remove dye solution and wash 3 times with assay buffer+probenecid (100 μl probenecid stock per 10 ml buffer), leaving 30 μL/well assay buffer. Wait at least 10-15 minutes. Compounds and agonist challenge additions are performed with the FLIPR. The 1st addition is for test compounds, which are added as 15 μL of 4×[concentration] of potentiator. The second 2nd addition is 15 μL of 4×[concentration] of agonist or challenge. This achieves 1× concentration of all compounds only after 2nd addition. The 1st and 2nd additions are performed separately using the FLIPR, which give 2 different data files. Compounds are pretreated at least 30 minutes before agonist addition,
Results are analyzed by dividing the peak fluorescent value of the FLIPR response by the […] to achieve a ratio response. The ratios are then analyzed by curve fitting programs. […] Maximum values for dose response curves (forced fitting) are derived from standards on the plate.
Compound Preparation and Glutamate Challenge:
Compounds are delivered as 10 mM DMSO stocks or as powders, Powders are solubilized in DMSO at 10 mM (as solubility allows). Compounds are sonicated in a heated water bath (35-40° C.) for at least 20 minutes.

[1] = mGluR2 potentiator screen, FLIPR, EC10-EC20 glutamate challenge

T1 sequence (Q14416 19-872, species assumed): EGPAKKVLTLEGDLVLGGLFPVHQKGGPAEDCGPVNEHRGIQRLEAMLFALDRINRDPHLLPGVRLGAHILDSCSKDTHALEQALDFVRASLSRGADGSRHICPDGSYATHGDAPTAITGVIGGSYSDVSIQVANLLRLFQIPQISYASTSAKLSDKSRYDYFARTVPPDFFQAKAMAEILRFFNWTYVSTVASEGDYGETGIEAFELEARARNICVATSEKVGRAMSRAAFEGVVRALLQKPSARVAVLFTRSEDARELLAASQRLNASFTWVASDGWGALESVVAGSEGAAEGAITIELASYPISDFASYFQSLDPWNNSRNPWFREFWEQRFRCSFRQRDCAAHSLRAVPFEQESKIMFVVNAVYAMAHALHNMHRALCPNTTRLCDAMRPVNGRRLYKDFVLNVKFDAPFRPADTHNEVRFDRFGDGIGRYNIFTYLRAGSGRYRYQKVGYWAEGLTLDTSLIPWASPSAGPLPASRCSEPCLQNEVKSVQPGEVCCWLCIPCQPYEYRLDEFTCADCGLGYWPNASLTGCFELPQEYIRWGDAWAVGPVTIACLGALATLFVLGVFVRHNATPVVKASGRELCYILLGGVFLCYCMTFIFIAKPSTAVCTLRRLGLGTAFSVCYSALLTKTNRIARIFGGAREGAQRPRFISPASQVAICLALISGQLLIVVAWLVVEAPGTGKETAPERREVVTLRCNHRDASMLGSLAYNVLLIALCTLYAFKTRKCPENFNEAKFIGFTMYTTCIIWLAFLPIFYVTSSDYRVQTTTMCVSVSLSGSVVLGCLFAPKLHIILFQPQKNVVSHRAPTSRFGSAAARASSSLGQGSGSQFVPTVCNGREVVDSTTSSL

Cn1c(CN2CCC(c3ccc(F)c(Cl)c3)CC2)nc2cnccc21 [compound 102]
EC50: 482 nM

C[C@@H]1CN(Cc2nc3cnccc3n2C)CC[C@@H]1c1cc(F)c(F)cc1F (single isomer, unassigned) [compound 225]
EC50: 95 nM

C[C@@H]1CN(Cc2nc3cnccc3n2C)CC[C@@H]1c1ccc(C(F)(F)F)c(F)c1 (single isomer, unassigned) [compound 183]
EC50: 53.2 nM

C[C@@H]1CN(Cc2nc3cnccc3n2C)CC[C@@H]1c1ccc(C(F)(F)F)cc1C(F)(F)F (relative stereo) [compound 150]
EC50: 207 nM

C[C@@H]1CN(Cc2nc3cnccc3n2C)CC[C@@H]1c1ccc(C(F)(F)F)cc1F (single isomer, unassigned) [compound 144]
EC50: 23 nM

Cn1c(CN2CCC(c3ccc(OC(F)F)cc3)CC2)nc2ncccc21 [compound 264]
EC50 [1]: 554 nM

C[C@@H]1CN(Cc2nc3ncccc3n2C)CC[C@@H]1c1ccc(Cl)cc1Cl (relative stereo) [compound 155]
EC50: 22.9 nM

CC(C)Oc1ccc([C@H]2CCN(Cc3nc4cnccc4n3C)C[C@H]2C)c(F)c1 (single isomer, unassigned) [compound 219]
EC50: 60.6 nM

Cn1c(CN2CCC(c3ccc(OC(F)F)cc3Cl)CC2)nc2cnccc21 [compound 265]
EC50 [1]: 164 nM

COc1cc(F)ccc1[C@H]1CCN(Cc2nc3cnccc3n2C)C[C@H]1C (relative stereo) [compound 133]
EC50: 53.7 nM

C[C@@H]1CN(Cc2nc3cnccc3n2C)CC[C@@H]1c1ccc(C(F)(F)F)cc1Cl (single isomer, unassigned) [compound 172]
EC50: 48.5 nM

Cn1c(CN2CCC(c3ccc(F)cc3)CC2)nc2ncccc21 [compound 67]
EC50: 2360 nM

C[C@@H]1CN(Cc2nc3cnccc3n2C)CC[C@@H]1c1ccc(F)cc1C(F)(F)F (relative stereo) [compound 258]
EC50 [1]: 125 nM

C[C@@H]1CN(Cc2nc3ncccc3n2C)CC[C@@H]1c1ccc(OC(F)(F)F)cc1Cl (single isomer, unassigned) [compound 255]
EC50 [1]: 76.9 nM

COc1ccc(C2CCN(Cc3nc4cnccc4n3C)CC2)c(C(F)(F)F)c1 [compound 270]
EC50 [1]: 494 nM

C[C@@H]1CN(Cc2nc3cnccc3n2C)CC[C@@H]1c1ccc(OC(F)F)cc1F (relative stereo) [compound 199]
EC50: 122 nM

C[C@@H]1CN(Cc2nc3ncccc3n2C)CC[C@@H]1c1ccc(C(F)(F)F)c(F)c1 (relative stereo) [compound 147]
EC50: 41.3 nM

Cn1c(CN2CCC(c3cc(F)ccc3F)CC2)nc2ncccc21 [compound 74]
EC50: 782 nM

C[C@@H]1CN(Cc2nc3cnccc3n2C)CC[C@@H]1c1ccc(F)cc1OC(F)F (relative stereo) [compound 275]
EC50 [1]: 96.5 nM

Cc1cc(F)ccc1C1CCN(Cc2nc3ncccc3n2C)CC1 [compound 69]
EC50: 353 nM

C[C@@H]1CN(Cc2nc3cnccc3n2C)CC[C@@H]1c1ccc(C(F)(F)F)c(F)c1 (single isomer, unassigned) [compound 184]
EC50: > 2710 nM

C[C@@H]1CN(Cc2nc3cnccc3n2C)CC[C@@H]1c1ccc(Cl)cc1C(F)(F)F (relative stereo) [compound 208]
EC50: 110 nM

Cc1cc(Cl)ccc1[C@H]1CCN(Cc2nc3cnccc3n2C)C[C@H]1C (relative stereo) [compound 161]
EC50: 393 nM

CCOc1ccc(C2CCN(Cc3nc4ncccc4n3C)CC2)cc1 [compound 98]
EC50: 2270 nM

Cn1c(CN2CCC(c3ccc(Cl)c(F)c3)CC2)nc2cnccc21 [compound 107]
EC50: 315 nM

CCOc1ccc([C@H]2CCN(Cc3nc4cnccc4n3C)C[C@H]2C)cc1F (relative stereo) [compound 194]
EC50: > 5360 nM

CC1CN(Cc2nc3ncccc3n2C)CCC1c1ccc(C(F)(F)F)cc1 (stereo not drawn) [compound 70]
EC50: 111 nM

C[C@@H]1CN(Cc2nc3cnccc3n2C)CC[C@@H]1c1ccc(OC(F)(F)F)cc1 (single isomer, unassigned) [compound 176]
EC50: 98.9 nM

C[C@@H]1CN(Cc2nc3cnccc3n2C)CC[C@@H]1c1ccc(OC(F)F)cc1Cl (single isomer, unassigned) [compound 247]
EC50 [1]: > 1410 nM

C[C@@H]1CN(Cc2nc3ncccc3n2C)CC[C@@H]1c1ccc(Cl)cc1F (single isomer, unassigned) [compound 122]
EC50: 28.8 nM

C[C@@H]1CN(Cc2nc3cnccc3n2C)CC[C@@H]1c1ccccc1F (single isomer, unassigned) [compound 73]
EC50: 242 nM

COc1cc(C(F)(F)F)ccc1[C@H]1CCN(Cc2nc3ncccc3n2C)C[C@H]1C (single isomer, unassigned) [compound 131]
EC50: 21.9 nM

COc1cc(C(F)(F)F)ccc1C1CCN(Cc2nc3ncccc3n2C)CC1 [compound 64]
EC50: 11.1 nM

C[C@@H]1CN(Cc2nc3nccc4c3n2CCC4)CC[C@@H]1c1ccc(F)cc1F (relative stereo) [Example 127, 2-{[Cis-4-(2,4-difluorophenyl)-3-methylpiperidin-1-yl]methyl}-5,6-dihydro-4H-imidazo[4,5,1-ij]-1,7-naphthyridine]
EC50: 47.1 nM | EC50 (HEK cells stably transfected with mGluR2 and Gα15, FLIPR (Fluo-4), potentiation of an EC10 to EC20 concentration of glutamate, Table 9): 47.1 nM

Cn1c(CN2CCC(c3cc(F)cc(F)c3)CC2)nc2ncccc21 [compound 91]
EC50: 985 nM

CC(C)Oc1ccc([C@H]2CCN(Cc3nc4ncccc4n3C)C[C@H]2C)cc1Cl (relative stereo) [compound 195]
EC50: 506 nM

C[C@@H]1CN(Cc2nc3ncccc3n2C)CC[C@@H]1c1ccc(OC(F)F)cc1Cl (single isomer, unassigned) [compound 245]
EC50 [1]: 262 nM

Cc1ccccc1C1CCN(Cc2nc3ncccc3n2C)CC1 [compound 89]
EC50: 823 nM

C[C@@H]1CN(Cc2nc3cnccc3n2C)CC[C@@H]1c1ccc(Cl)cc1Cl (relative stereo) [compound 156]
EC50: 88.2 nM

C[C@@H]1CN(Cc2nc3cnccc3n2C)CC[C@@H]1c1ccc(Cl)cc1F (single isomer, unassigned) [compound 140]
EC50: 2050 nM

Cc1cc(Cl)ccc1[C@H]1CCN(Cc2nc3ncccc3n2C)C[C@H]1C (relative stereo) [compound 160]
EC50: 102 nM

C[C@@H]1CN(Cc2nc3ncccc3n2C)CC[C@@H]1c1ccc(C(F)(F)F)cc1C(F)(F)F (relative stereo) [compound 149]
EC50: 24.8 nM

Cn1c(CN2CCC(c3cccc(F)c3F)CC2)nc2ncccc21 [compound 108]
EC50: 307 nM

C[C@@H]1CN(Cc2nc3cnccc3n2C)CC[C@@H]1c1ccc(OC(F)(F)F)cc1Cl (relative stereo) [compound 188]
EC50: 194 nM

Cc1cc(C(F)(F)F)ccc1C1CCN(Cc2nc3cnccc3n2C)CC1 [compound 242]
EC50 [1]: 85.8 nM

Cn1c(CN2CCC(c3cc(C(F)(F)F)cc(C(F)(F)F)c3)CC2)nc2ncccc21 [compound 65]
EC50: 144 nM

COc1cc(C(F)(F)F)ccc1[C@H]1CCN(Cc2nc3ncccc3n2C)C[C@H]1C (relative stereo) [compound 114]
EC50: 42.8 nM

Cc1ccc([C@H]2CCN(Cc3nc4ncccc4n3C)C[C@H]2C)c(Cl)c1 (relative stereo) [compound 210]
EC50: 62.6 nM

Cn1c(CN2CCC(c3ccc(OC(F)F)cc3)CC2)nc2cnccc21 [compound 263]
EC50 [1]: 906 nM

COc1ccc([C@H]2CCN(Cc3nc4cnccc4n3C)C[C@H]2C)c(C(F)(F)F)c1 (relative stereo) [compound 174]
EC50: > 1690 nM

From patent US20080312271A1, “AZABENZIMIDAZOLYL COMPOUNDS” (Pfizer Inc., priority 2006, published 2008)
